Results published in patent US7238779B2, “Acyl CoA:cholesterol acyltransferase (ACAT-2)” (The Regents of the University of California, priority 1998, dated 2007).

Test system: ACAT-2 protein
Test: inhibition of ACAT-2 protein activity
Format: biochemical
Details: general statement, concentration not given

| Structure (SMILES) | activity of the ACAT-2 protein is inhibited by the compound |
| --- | --- |
| CCCCCCCCCCC(C)(C)C(=O)Nc1c(OC)cc(OC)cc1OC [CI-976] | inhibited |
| CC(C)c1cc(C(C)C)c(CC(=O)NS(=O)(=O)Oc2c(C(C)C)cccc2C(C)C)c(C(C)C)c1 [CI-1011] | inhibited |
| CC(C)c1cccc(C(C)C)c1NC(=O)NCC1(c2ccc(N(C)C)cc2)CCCC1.Cl [PD 132301-2] | inhibited |
| O=C(O)c1cc[c]([Hg][OH])cc1 [PHMB] | inhibited |
| O=S(=O)(F)Cc1ccccc1 [PMSF] | inhibited |
| CC(=O)[C@H]1CC[C@H]2[C@@H]3CCC4=CC(=O)CC[C@]4(C)[C@H]3CC[C@]12C [progesterone] | inhibited |
